{
  "source": "patent US7589104B2",
  "about": "“Tricyclic-bridged piperidinyline derivatives as §-opioid modulators” (Janssen Pharmaceutica NV, priority 2004, dated 2009)",
  "data": [
    {"molecular_target": "T1, mu opioid receptor (Rattus norvegicus, UniProt P33535)", "T1 construct": "Following incubation with the mu selective peptide ligand, ˜0.8 nM [^3H]DAMGO; from tissue; host or cells: forebrain of male Wistar rats (Charles River)", "T1 sequence (P33535 whole entry)": "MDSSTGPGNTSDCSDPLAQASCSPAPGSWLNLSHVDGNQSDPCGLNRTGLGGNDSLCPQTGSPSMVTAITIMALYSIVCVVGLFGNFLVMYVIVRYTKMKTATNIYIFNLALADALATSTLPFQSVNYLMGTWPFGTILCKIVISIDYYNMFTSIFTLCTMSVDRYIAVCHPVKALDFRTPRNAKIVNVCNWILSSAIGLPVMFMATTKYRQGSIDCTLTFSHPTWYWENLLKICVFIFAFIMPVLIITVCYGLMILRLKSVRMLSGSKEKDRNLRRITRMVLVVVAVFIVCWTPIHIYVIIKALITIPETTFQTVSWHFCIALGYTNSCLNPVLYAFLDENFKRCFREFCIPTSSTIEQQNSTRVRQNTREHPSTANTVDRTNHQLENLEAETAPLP", "assay": "Rat Brain Mu Opioid Receptor Binding Assay", "units": {"Ki": "nM"}, "values": [
      {"molecule": "CCN(CC)C(=O)c1ccc2c(c1)Oc1ccc(Br)cc1C2C1CC2CCC(C1)N2", "note": "(centres unmarked) [Compound 7f, 9-(8-Aza-bicyclo[3.2.1]oct-3-yl)-7-bromo-9H-xanthene-3-carboxylic acid diethylamide]", "Ki": 1750},
      {"molecule": "c1csc(CN2C3CCC2CC(C2c4ccccc4Oc4cc(-c5ccncc5)ccc42)C3)c1", "note": "(centres unmarked) [Compound 21b, 3-(3-Pyridin-4-yl-9H-xanthen-9-yl)-8-thiophen-2-ylmethyl-8-aza-bicyclo[3.2.1]octane]", "Ki": 930}
    ]},
    {"molecular_target": "T2, delta opioid receptor (Rattus norvegicus, UniProt P33533)", "T2 construct": "from tissue; host or cells: forebrain of male Wistar rats (Charles River)", "T2 sequence (P33533 whole entry)": "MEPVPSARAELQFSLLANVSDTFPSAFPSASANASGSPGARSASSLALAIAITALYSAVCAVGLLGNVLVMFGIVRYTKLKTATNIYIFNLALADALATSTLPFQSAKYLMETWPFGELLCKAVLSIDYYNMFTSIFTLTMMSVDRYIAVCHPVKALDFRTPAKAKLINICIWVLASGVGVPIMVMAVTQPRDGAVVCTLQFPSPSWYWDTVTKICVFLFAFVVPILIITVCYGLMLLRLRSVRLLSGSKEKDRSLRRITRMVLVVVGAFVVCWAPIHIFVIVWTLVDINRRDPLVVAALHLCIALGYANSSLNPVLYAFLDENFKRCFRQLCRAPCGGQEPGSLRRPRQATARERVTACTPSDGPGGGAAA", "assay": "Rat Brain Delta Opioid Receptor Binding Assay", "units": {"Ki": "nM"}, "values": [
      {"molecule": "CCN(CC)C(=O)c1ccc2c(c1)Oc1ccc(Br)cc1C2C1CC2CCC(C1)N2", "note": "(centres unmarked) [Compound 7f, 9-(8-Aza-bicyclo[3.2.1]oct-3-yl)-7-bromo-9H-xanthene-3-carboxylic acid diethylamide]", "Ki": 174},
      {"molecule": "c1csc(CN2C3CCC2CC(C2c4ccccc4Oc4cc(-c5ccncc5)ccc42)C3)c1", "note": "(centres unmarked) [Compound 21b, 3-(3-Pyridin-4-yl-9H-xanthen-9-yl)-8-thiophen-2-ylmethyl-8-aza-bicyclo[3.2.1]octane]", "Ki": 98},
      {"molecule": "c1csc(CN2C3CCC2CC(C2c4ccccc4Oc4cc(-c5nnn[nH]5)ccc42)C3)c1", "note": "(centres unmarked) [Compound 7j, 3-[3-(1H-Tetrazol-5-yl)-9H-xanthen-9-yl]-8-thiophen-2-ylmethyl-8-aza-bicyclo[3.2.1]octane]", "Ki": 13.8},
      {"molecule": "O=C(c1ccc2c(c1)Oc1ccccc1C2C1CC2CCC(C1)N2)N1CCC(O)C1", "note": "(centres unmarked) [Compound 3o, [9-(8-Aza-bicyclo[3.2.1]oct-3-yl)-9H-xanthen-3-yl]-(3-hydroxy-pyrrolidin-1-yl)-methanone]", "Ki": 1210},
      {"molecule": "O=c1[nH]c(-c2ccc3c(c2)Oc2ccccc2C3C2CCNCC2)no1", "note": "(centres unmarked) [Compound 2n, 3-(9-Piperidin-4-yl-9H-xanthen-3-yl)-4H-[1,2,4]oxadiazol-5-one]", "Ki": 1300},
      {"molecule": "Oc1cccc2c1Oc1cc(-c3cccnc3)ccc1C2C1CC2CCC(C1)N2CCc1ccccc1", "note": "(centres unmarked) [Compound 13k, 9-(8-Phenethyl-8-aza-bicyclo[3.2.1]oct-3-yl)-6-pyridin-3-yl-9H-xanthen-4-ol]", "Ki": 281},
      {"molecule": "CCN(CC)C(=N)c1ccc2c(c1)Oc1ccccc1C2C1CC2CCC(C1)N2", "note": "(centres unmarked) [Compound 4m, 9-(8-Aza-bicyclo[3.2.1]oct-3-yl)-N,N-diethyl-9H-xanthene-3-carboxamidine]", "Ki": 208},
      {"molecule": "c1cncc(-c2ccc3c(c2)Oc2ccccc2C3C2CC3CCC(C2)N3Cc2ncc[nH]2)c1", "note": "(centres unmarked) [Compound 26b, 8-(1H-Imidazol-2-ylmethyl)-3-(3-pyridin-3-yl-9H-xanthen-9-yl)-8-aza-bicyclo[3.2.1]octane]", "Ki": 338},
      {"molecule": "CCN(CC)C(=N)c1ccc2c(c1)Oc1ccccc1C2C1CC2CCC(C1)N2CCc1ccccc1", "note": "(centres unmarked) [Compound 9m, N,N-Diethyl-9-(8-phenethyl-8-aza-bicyclo[3.2.1]oct-3-yl)-9H-xanthene-3-carboxamidine]", "Ki": 903},
      {"molecule": "Oc1cccc2c1Oc1cc(-c3cccnc3)ccc1C2C1CC2CCC(C1)N2Cc1ccccc1", "note": "(centres unmarked) [Compound 12k, 9-(8-Benzyl-8-aza-bicyclo[3.2.1]oct-3-yl)-6-pyridin-3-yl-9H-xanthen-4-ol]", "Ki": 39.4},
      {"molecule": "CC(=O)Nc1ccccc1-c1ccc2c(c1)Oc1c(O)cccc1C2C1CC2CCC(C1)N2Cc1ncc[nH]1", "note": "(centres unmarked) [Compound 9l, N-(2-{5-Hydroxy-9-[8-(1H-imidazol-2-ylmethyl)-8-aza-bicyclo[3.2.1]oct-3-yl]-9H-xanthen-3-yl}-phenyl)-acetamide]", "Ki": 4.9},
      {"molecule": "c1ccc(CN2C3CCC2CC(C2c4ccccc4Oc4cc(-c5nnn[nH]5)ccc42)C3)nc1", "note": "(centres unmarked) [Compound 8j, 8-Pyridin-2-ylmethyl-3-[3-(1H-tetrazol-5-yl)-9H-xanthen-9-yl]-8-aza-bicyclo[3.2.1]octane]", "Ki": 178},
      {"molecule": "Oc1cccc2c1Oc1cc(-c3cccnc3)ccc1C2C1CC2CCC(C1)N2Cc1ccccn1", "note": "(centres unmarked) [Compound 11k, 6-Pyridin-3-yl-9-(8-pyridin-2-ylmethyl-8-aza-bicyclo[3.2.1]oct-3-yl)-9H-xanthen-4-ol]", "Ki": 3.05},
      {"molecule": "CC(=O)Nc1ccccc1-c1ccc2c(c1)Oc1c(O)cccc1C2C1CC2CCC(C1)N2Cc1ccccc1", "note": "(centres unmarked) [Compound 7l, N-{2-[9-(8-Benzyl-8-aza-bicyclo[3.2.1]oct-3-yl)-5-hydroxy-9H-xanthen-3-yl]-phenyl}-acetamide]", "Ki": 21.8},
      {"molecule": "CCN(CC)C(=N)c1ccc2c(c1)Oc1ccccc1C2C1CC2CCC(C1)N2Cc1ccccc1", "note": "(centres unmarked) [Compound 8m, 9-(8-Benzyl-8-aza-bicyclo[3.2.1]oct-3-yl)-N,N-diethyl-9H-xanthene-3-carboxamidine]", "Ki": 349},
      {"molecule": "CC(=O)Nc1ccccc1-c1ccc2c(c1)Oc1c(O)cccc1C2C1CC2CCC(C1)N2Cc1ccoc1", "note": "(centres unmarked) [Compound 4l, N-{2-[9-(8-Furan-3-ylmethyl-8-aza-bicyclo[3.2.1]oct-3-yl)-5-hydroxy-9H-xanthen-3-yl]-phenyl}-acetamide]", "Ki": 22.2},
      {"molecule": "Oc1cccc2c1Oc1cc(-c3cccnc3)ccc1C2C1CC2CCC(C1)N2Cc1cccs1", "note": "(centres unmarked) [Compound 10k, 6-Pyridin-3-yl-9-(8-thiophen-2-ylmethyl-8-aza-bicyclo[3.2.1]oct-3-yl)-9H-xanthen-4-ol]", "Ki": 45.2},
      {"molecule": "CC(=O)Nc1ccccc1-c1ccc2c(c1)Oc1c(O)cccc1C2C1CC2CCC(C1)N2CCc1ccccc1", "note": "(centres unmarked) [Compound 8l, N-{2-[5-Hydroxy-9-(8-phenethyl-8-aza-bicyclo[3.2.1]oct-3-yl)-9H-xanthen-3-yl]-phenyl}-acetamide]", "Ki": 26.6},
      {"molecule": "Oc1cccc2c1Oc1cc(-c3cccnc3)ccc1C2C1CC2CCC(C1)N2Cc1ccoc1", "note": "(centres unmarked) [Compound 9k, 9-(8-Furan-3-ylmethyl-8-aza-bicyclo[3.2.1]oct-3-yl)-6-pyridin-3-yl-9H-xanthen-4-ol]", "Ki": 50.3},
      {"molecule": "CC(=O)Nc1ccccc1-c1ccc2c(c1)Oc1c(O)cccc1C2C1CC2CCC(C1)N2Cc1ccccn1", "note": "(centres unmarked) [Compound 6l, N-{2-[5-Hydroxy-9-(8-pyridin-2-ylmethyl-8-aza-bicyclo[3.2.1]oct-3-yl)-9H-xanthen-3-yl]-phenyl}-acetamide]", "Ki": 49.9},
      {"molecule": "CCN(CC)C(=N)c1ccc2c(c1)Oc1ccccc1C2C1CC2CCC(C1)N2Cc1ccccn1", "note": "(centres unmarked) [Compound 7m, N,N-Diethyl-9-(8-pyridin-2-ylmethyl-8-aza-bicyclo[3.2.1]oct-3-yl)-9H-xanthene-3-carboxamidine]", "Ki": 17.3},
      {"molecule": "c1ccc(CCN2C3CCC2CC(C2c4ccccc4Oc4cc(-c5nnn[nH]5)ccc42)C3)cc1", "note": "(centres unmarked) [Compound 10j, 8-Phenethyl-3-[3-(1H-tetrazol-5-yl)-9H-xanthen-9-yl]-8-aza-bicyclo[3.2.1]octane]", "Ki": 1150},
      {"molecule": "CCN(CC)C(=N)c1ccc2c(c1)Oc1ccccc1C2C1CC2CCC(C1)N2Cc1cccs1", "note": "(centres unmarked) [Compound 6m, N,N-Diethyl-9-(8-thiophen-2-ylmethyl-8-aza-bicyclo[3.2.1]oct-3-yl)-9H-xanthene-3-carboxamidine]", "Ki": 162},
      {"molecule": "c1ccc(CN2C3CCC2CC(C2c4ccccc4Oc4cc(-c5nnn[nH]5)ccc42)C3)cc1", "note": "(centres unmarked) [Compound 9j, 8-Benzyl-3-[3-(1H-tetrazol-5-yl)-9H-xanthen-9-yl]-8-aza-bicyclo[3.2.1]octane]", "Ki": 176},
      {"molecule": "c1ccc2c(c1)Oc1cc(-c3nnn[nH]3)ccc1C2C1CC2CCC(C1)N2Cc1ccoc1", "note": "(centres unmarked) [Compound 6j, 8-Furan-3-ylmethyl-3-[3-(1H-tetrazol-5-yl)-9H-xanthen-9-yl]-8-aza-bicyclo[3.2.1]octane]", "Ki": 20.6},
      {"molecule": "CC(=O)Nc1ccccc1-c1ccc2c(c1)Oc1c(O)cccc1C2C1CC2CCC(C1)N2Cc1cccs1", "note": "(centres unmarked) [Compound 5l, N-{2-[5-Hydroxy-9-(8-thiophen-2-ylmethyl-8-aza-bicyclo[3.2.1]oct-3-yl)-9H-xanthen-3-yl]-phenyl}-acetamide]", "Ki": 6.51},
      {"molecule": "CCN(CC)C(=N)c1ccc2c(c1)Oc1ccccc1C2C1CC2CCC(C1)N2Cc1ccoc1", "note": "(centres unmarked) [Compound 5m, N,N-Diethyl-9-(8-furan-3-ylmethyl-8-aza-bicyclo[3.2.1]oct-3-yl)-9H-xanthene-3-carboxamidine]", "Ki": 234}
    ]}
  ]
}
